From US8889674B2, “Piperidine and pyrrolidine derivatives having NPY Y5 receptor antagonism” (Shionogi & Co., Ltd., priority 2009, dated 2014) come the findings set out here.

The target in this experiment is T1, mouse NPY Y5 receptor (Mus musculus, UniProt O70342).
T1 construct: expressed in transfected cells
T1 sequence (O70342 1-466): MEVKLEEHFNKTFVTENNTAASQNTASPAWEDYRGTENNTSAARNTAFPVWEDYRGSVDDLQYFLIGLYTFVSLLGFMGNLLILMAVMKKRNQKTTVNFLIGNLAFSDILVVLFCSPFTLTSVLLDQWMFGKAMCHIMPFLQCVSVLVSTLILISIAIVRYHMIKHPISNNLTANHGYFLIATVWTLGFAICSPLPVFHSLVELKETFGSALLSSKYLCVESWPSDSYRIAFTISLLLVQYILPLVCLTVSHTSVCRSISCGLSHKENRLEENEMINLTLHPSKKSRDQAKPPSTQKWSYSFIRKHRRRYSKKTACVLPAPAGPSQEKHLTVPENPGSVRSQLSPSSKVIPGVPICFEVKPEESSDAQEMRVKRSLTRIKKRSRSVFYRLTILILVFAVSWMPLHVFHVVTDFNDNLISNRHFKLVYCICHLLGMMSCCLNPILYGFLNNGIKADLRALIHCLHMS
The experiment is described as follows: Affinity for NPY Y5 receptor: 125I peptide YY binding to membranes of CHO cells expressing mouse NPY Y5 receptor. Particulars: mouse NPY Y5 receptor in CHO cell membranes, 125I peptide YY 60 pM, 25° C., 2 hours. The source says: cDNA sequence encoding mouse NPY Y5 receptor (Biochem. Biophys. Acta 1328: 83-89, 1997) was cloned in the expression vector (pME18S, Takebe et al. Mol. Cell. Biol. 8, 466-472). The obtained expression vector was transfected into CHO cells as a host according to the instruction manual using Lipofectamine reagent (Trademark, Gibco BRL Co., Ltd.). The cells that stably express NPY Y5 receptor were obtained.
The membrane samples prepared from the CHO cells expressing NPY Y5 receptor, the compound of the invention and 30,000 cpm ^125I peptide YY (60 pM of final concentration: Amersham) were incubated in the assay buffer (20 mM HEPES-Hanks buffer containing 0.1% bovine serum albumin, pH 7.4) at 25° C. for 2 hours. The membrane samples were then filtered from the mixture through a glassfilter (GF/C) presoaked with 1% polyethyleneimine. After washing with 50 mM Tris-HCl buffer (pH 7.4), radioactivity retained on the filters was determined using gamma counter. Non-specific binding was determined in the presence of 200 nM of peptide YY and calculated the 50% inhibitory concentration (IC50 value) of the test compound for specific peptide YY binding (Inui, A. et al. Endocrinology 131, 2090-2096 (1992)).

As to `CC(=O)N1CCC[C@@H]1C(=O)N1CCC(C(=O)Nc2cccc(-c3ccccc3F)c2)CC1` [Ia-4], the half-inhibitory concentration (IC50) was found to be 0.47 nM.

Take `CC(=O)N1CCC[C@@H]1C(=O)N1CCC(c2nc3ccc(-c4ccccc4F)cc3[nH]2)CC1` [Ia-5]: the IC50 is 0.28 nM.

For `C[C@@H]1CC(F)(F)CN1C(=O)N1CCC(C(=O)Nc2cccc(-c3ccccc3F)c2)CC1` [Ia-18], the half-maximal inhibitory concentration (IC50) stood at 1.56 nM. Against the preceding compound, the IC50 is about 5.6-fold higher.

In the case of `O=C(Nc1ccc(OC(F)F)cc1)C1CCN(C(=O)Cn2c(-c3ccccc3)noc2=O)CC1` [Ia-19], the concentration for half-maximal inhibition (IC50) is 0.29 nM.

Regarding `CC(C)c1noc(=O)n1CC(=O)N1CCC(C(=O)Nc2cccc(-c3ccccc3F)c2)CC1` [Ia-22], the IC50 was determined as 0.22 nM.

In the case of `O=C(Cn1cc(Cl)ccc1=O)N1CCC(c2cc3cc(OC(F)F)ccc3[nH]2)CC1` [Ia-28], the concentration for half-maximal inhibition (IC50) is 0.96 nM.

The compound `O=C(Cn1cc(Cl)ccc1=O)N1CCC(c2cc3cc(-c4ccccn4)ccc3[nH]2)CC1` [Ia-29] gave a half-inhibitory concentration (IC50) of 0.97 nM.

In turn, `N#Cc1ccccc1C(=O)N1CCC(C(=O)Nc2ccn(-c3ccccc3F)n2)CC1` [Ia-34] showed an IC50 of 0.59 nM.

The compound `N#Cc1ccccc1C(=O)N1CCC(C(=O)Nc2cccc(-c3ccccc3F)c2)CC1` [Ia-35] showed a half-inhibitory concentration (IC50) of 0.26 nM.

The compound `N#Cc1ccccc1C(=O)N1CCC(C(=O)Nc2ccnc(-c3ccccc3F)c2)CC1` [Ia-40] registered an IC50 of 0.27 nM.

As to `N#Cc1ccccc1C(=O)N1CCC(C(=O)Nc2cccc(-c3ccccn3)c2)CC1` [Ia-41], the half-maximal inhibitory concentration (IC50) was 0.31 nM.

As for `N#Cc1ccccc1C(=O)N1CCC(C(=O)Nc2ccc(-c3ccccc3)cc2)CC1` [Ia-44], the concentration for half-maximal inhibition (IC50) was 0.26 nM.

Compound `N#Cc1ccccc1C(=O)N1CCC(C(=O)Nc2cccc(Oc3ccccc3)c2)CC1` [Ia-47] showed an IC50 of 0.38 nM.

Regarding `N#Cc1ccccc1C(=O)N1CCC(C(=O)Nc2cccc(Oc3ccccc3F)c2)CC1` [Ia-52], the IC50 turned out to be 0.28 nM.

In turn, `N#Cc1ccccc1C(=O)N1CCC(C(=O)Nc2cccc(-c3nccs3)c2)CC1` [Ia-54] displayed an IC50 of 0.39 nM.

Compound `CC(C)n1ccc2cc(NC(=O)C3CCN(C(=O)c4ccccc4C#N)CC3)ccc21` [Ia-57] registered an IC50 of 0.23 nM.

`CC(C)c1ccccc1C(=O)N1CCC(C(=O)Nc2ccc(OC(F)F)cc2)CC1` [Ia-62]: the 50% inhibitory concentration (IC50) came out at 1.77 nM. Against the preceding compound, the IC50 is about 7.7-fold higher.

The compound `N#Cc1ccccc1C(=O)N1CC[C@H](C(=O)Nc2cccc(-c3ccccc3F)c2)C1` [Ia-63] came in with an IC50 of 0.33 nM.

Regarding `N#Cc1ccccc1C(=O)N1CC[C@H](C(=O)Nc2ccn(-c3ccccc3F)n2)C1` [Ia-65], the IC50 amounted to 0.25 nM.

With `N#Cc1ccc(F)cc1C(=O)N1CCC(C(=O)Nc2cccc(-c3ccccc3F)c2)CC1` [Ia-68], the IC50 was found to be 0.2 nM.

`N#Cc1ccc(F)cc1C(=O)N1CCC(C(=O)Nc2cccc(-c3ccccn3)c2)CC1` [Ia-70] returned an IC50 of 0.18 nM. The IC50 values of the last two compounds are within 1.5-fold of each other.

Turning to `N#Cc1ccc(F)cc1C(=O)N1CCC(C(=O)Nc2cccc(-c3ncccn3)c2)CC1` [Ia-71], the IC50 came out at 0.37 nM.

`N#Cc1ccccc1C(=O)N1CCC(c2nc(-c3ccc(Cl)c(Cl)c3)c[nH]2)CC1` [Ia-85]: the half-inhibitory concentration (IC50) came out at 0.12 nM.

`N#Cc1ccccc1C(=O)N1CCC(c2nc(-c3cccc(C(F)(F)F)c3)c[nH]2)CC1` [Ia-87] registered an IC50 of 0.17 nM.

Take `Cc1[nH]c(C2CCN(C(=O)c3ccccc3C#N)CC2)nc1-c1ccccc1` [Ia-88]: the concentration for half-maximal inhibition (IC50) amounted to 0.35 nM.

In turn, `N#Cc1ccccc1C(=O)N1CCC(c2nc3cc(-c4ccccc4F)ccc3[nH]2)CC1` [Ia-93] registered an IC50 of 0.19 nM.

In the case of `N#Cc1ccccc1C(=O)N1CCC(c2cc(-c3ccc(Cl)c(Cl)c3)n[nH]2)CC1` [Ia-94], the IC50 worked out at 0.3 nM.

Regarding `N#Cc1ccccc1CN1CCC(C(=O)Nc2cccc(-c3ccccc3F)c2)CC1` [Ia-99], the IC50 came to 0.64 nM.

In turn, `O=C(Nc1cccc(-c2ccccc2F)c1)C1CCN(C(=O)c2ccccc2C(F)(F)F)CC1` [Ia-104] registered an IC50 of 2 nM.

In the case of `O=C(Nc1ccn(-c2ccccc2F)n1)[C@H]1CCN(C(=O)c2ccccc2C(F)(F)F)C1` [Ia-106], the half-maximal inhibitory concentration (IC50) was found to be 1.5 nM.

As for `CC(C)n1ccc2cc(NC(=O)C3CCN(C(=O)c4ccccc4C(F)(F)F)CC3)ccc21` [Ia-108], the IC50 turned out to be 0.48 nM.

Compound `O=C(Nc1cccc(-c2ccccc2F)c1)C1CCN(C(=O)c2cc(Cl)ccn2)CC1` [Ia-113] showed a half-inhibitory concentration (IC50) of 4.28 nM.

On to `CC(C)n1cccc1C(=O)N1CCC(C(=O)Nc2cccc(-c3ccccc3F)c2)CC1` [Ia-116], for which the IC50 stood at 1.43 nM.

The IC50 is the concentration at which inhibition is half-maximal. A higher IC50 goes with lower potency.
